Measured values taken from US20180185325A1, “12H-BENZO[b]XANTHEN-12-ONES, COMPOSITIONS CONTAINING, AND USES OF, SAME” (Thesan Pharmaceuticals, Inc., priority 2015, published 2018).

Legend:
[1] = molecular target: T1, Aryl Hydrocarbon Receptor (Homo sapiens, UniProt P35869); assay: AhR activation luciferase reporter in Hep G2-plox-XRE TATA-Luc cells; type: cell-based; conditions: 24 h, 1-10 uM
T1 construct: endogenous in cells; host or cells: Hep G2 cells stably transduced with the lentivector plox-XRE TATA-Luc (reporter only)
T1 sequence (P35869 11-848): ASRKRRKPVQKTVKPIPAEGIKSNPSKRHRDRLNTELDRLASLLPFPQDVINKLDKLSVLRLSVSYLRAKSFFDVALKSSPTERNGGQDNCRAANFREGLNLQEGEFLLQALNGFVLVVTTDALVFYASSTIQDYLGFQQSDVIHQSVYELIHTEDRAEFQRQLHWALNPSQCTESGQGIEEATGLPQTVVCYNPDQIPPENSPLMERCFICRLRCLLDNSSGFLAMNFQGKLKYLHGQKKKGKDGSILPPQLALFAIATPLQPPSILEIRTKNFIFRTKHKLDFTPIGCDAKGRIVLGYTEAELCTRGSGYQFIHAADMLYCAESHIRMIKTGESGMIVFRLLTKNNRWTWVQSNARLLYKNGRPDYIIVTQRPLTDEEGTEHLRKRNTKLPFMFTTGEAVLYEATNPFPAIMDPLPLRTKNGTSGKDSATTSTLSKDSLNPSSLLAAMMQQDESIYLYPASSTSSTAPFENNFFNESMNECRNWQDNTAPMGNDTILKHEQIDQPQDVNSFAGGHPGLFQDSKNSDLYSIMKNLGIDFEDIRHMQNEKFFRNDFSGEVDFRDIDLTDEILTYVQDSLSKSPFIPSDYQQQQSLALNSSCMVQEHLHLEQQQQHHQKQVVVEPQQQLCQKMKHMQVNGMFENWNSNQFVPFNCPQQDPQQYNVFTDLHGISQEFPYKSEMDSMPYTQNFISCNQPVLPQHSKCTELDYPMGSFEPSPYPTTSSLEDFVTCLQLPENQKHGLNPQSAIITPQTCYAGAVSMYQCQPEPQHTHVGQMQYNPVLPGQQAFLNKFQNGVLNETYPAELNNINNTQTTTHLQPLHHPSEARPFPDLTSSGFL
Description: AhR activation is measured in HEP G2 cells (hepatocytes, Hep G2 is a human liver carcinoma cell line) stably transfected with the lentivector plox-XRE TATA-Luc. The Hep G2 cells are cultured in a growing media consisting of DMEM (Gibco)+10% fetal bovine serum+penicillin+streptomycin. At D0, the Hep G2 cells are seeded into 12-well plates in proportions of approximately 30,000 cells/cm^2. After 24 h, the medium is replaced with fresh medium and the cells are transduced with the lentivector plox-XRE TATA-Luc. After 48 h, the cells are subcultured and maintained in culture, and tested for their reactivity to 3-phenyl-1H-benzo[f]chromen-1-one. The tests are carried out using the luciferase reporter assay system kit from Promega. At D0, the cells are seeded at a density of approximately 60% confluence, and then treated, at D1, with the test substance diluted to various concentrations in the appropriate culture medium. At […], the cells are lysed in CLB buffer, and the lysate is clarified by centrifugation for 5 min at 10 000 g. The luciferase activity is measured in 20 microliters of lysate as recommended by the supplier, using the luminoskan luminometer (Thermo). […] Data is processed and EC50's can be calculated from standard data monitoring software.

[2] = molecular target: T1, Aryl Hydrocarbon Receptor; assay: AhR activation luciferase reporter in NHK-plox-XRE TATA-Luc cells; type: cell-based; conditions: 24 h, 1-10 uM
Description: AhR activation is also measured in human skin cells such as normal human keratinocytes (NHK cells) or A431 epidermoid cells stably transfected with the lentivector plox-XRE TATA-Luc. The NHK cells are cultured in a specific keratinocyte SFM medium (Gibco)+penicillin+streptomycin. At D0, the NHK cells are seeded into 6-well plates in a proportion of approximately […]. After 24 h, the medium is replaced with fresh medium and the cells are transduced with the lentivector plox-XRE TATA-Luc. After 48 h, the cells are subcultured and maintained in culture, and tested for their reactivity to 3-phenyl-1H-benzo[f]chromen-1-one. The tests are carried out using the luciferase reporter assay system kit from Promega. At D0, the cells are seeded at a density of approximately 60% confluence, and then treated, at D1, with the test substance diluted to various concentrations in the appropriate culture medium. At D2, the cells are lysed in CLB buffer, and the lysate is clarified by centrifugation for 5 min at 10 000 g. The luciferase activity is measured in 20 microliters of lysate as recommended by the supplier, using the luminoskan luminometer (Thermo). […] Data is processed and EC50's can be calculated from standard data monitoring software.

CYP1A1 [3] = assay: EROD assay in human cultured sebocytes; type: cell-based; conditions: cultured sebocytes, probe 7-ethoxyresorufin (8 μM)
Description: (§1) Cells are seeded at between 1×10^4 and 2.5×10^4 cells/well in a 96-well microtitre plate. […] The formation of resorufin is quantified by fluorometry with a fluorescence plate reader. Fluorescence is determined at λex 570 nm and […]. The amount of resorufin is calculated from a standard curve generated using 0 to 1 μM resorufin in water at 34 log dilutions. The remaining (i.e. all cells present at the beginning of analysis, since only supernatant is taken to assay EROD) live cells are subsequently utilized for the MIT cytotoxicity assay. MIT is made up in serum-free medium at 5 mg/ml. then added to the cells giving a final concentration of 10% (0.5 mg/ml MIT final) then incubated for 2 h. The medium is carefully removed, then MTT formazan is solubilized by adding 200 μl of DMSO and subsequently mixed on a plate shaker. The absorbance is measured spectrophotometrically at 550 nm and background absorbance at 690 nm is subtracted. A standard curve generated using MTT formazan (dissolved in DMSO) from 0-200 μM (0, 2, 5, 10, 20, 50, 100, 200 μM) is used to calculate the final experimental values which are then expressed as (μmol resorufin/mol MIT formazan) or as fold-induction compared to solvent.

CYP1A1 mRNA = CYP1A1 mRNA assay in HepG2 cells (RT-PCR); type: cell-based, human; conditions: 10 uM
Description: HepG2 cells (American Type Culture Collection (ATCC), Manassas, Va.) were cultured using Eagle's minimal essential medium (ATCC), supplemented with 10% fetal calf serum (Invitrogen Life Technologies). […] Cells were plated at a seeding density of 3.8×10^5 cells per well on 6-well plates (Corning Costar, NY, U.S.A.). Cells were allowed to attach for 24 h in a 37° C. humidified incubator with a 5% CO2 atmosphere. Media was replaced with that containing test agents or vehicle (0.1% dimethylsulphoxide) and cells incubated for a further 24 h. Following the 24 h incubation with test agents, media was removed and RNA prepared using the Purelink RNA mini kit (ThermoFischer, Carlsbad, Calif.). Nucleic acid concentration was determined using a Nanodrop™ spectrophotometer (ThermoScientific) by measuring the OD at 260 nm and RNA purity was evaluated using the OD 260/280 nm ratio. 1 μg RNA was reverse transcribed using SuperScript®VILO™ (ThermoFischer) with cDNA synthesis performed using the following parameters: 10 min at 25° C., 2 h at 42° C., 5 min at 85° C. (deactivation) followed by a completion temperature of 4° C. […] Each sample (1 μl) was pipetted into a 96-well optical reaction plate (Applied Biosystems, Carlsbad, Calif.). […] Results were analyzed by calculating the fold change of CYP1A1 mRNA levels normalized to 18S rRNA (ΔΔCt) in compound treated cells or tissues compared to vehicle levels.

CYP1A1 [4] = assay: EROD assay in HepG2 cells (cleavage of 7-ethoxyresorufin to resorufin); type: cell-based, human; conditions: human, probe 7-ethoxyresorufin (8 μM)
Description: (§2) HepG2 cells are seeded at between 1×10^4 and 2.5×10^4 cells/well in a 96-well microtitre plate. […] The formation of resorufin is quantified by fluorometry with a fluorescence plate reader. Fluorescence is determined at λex 570 nm and λem 590 nm. […] The remaining (i.e. all cells present at the beginning of analysis, since only supernatant is taken to assay EROD) live cells are subsequently utilized for the MIT cytotoxicity assay. […] The medium is carefully removed, then MIT formazan is solubilized by adding 200 μl of DMSO and subsequently mixed on a plate shaker. The absorbance is measured spectrophotometrically at 550 nm and background absorbance at 690 nm is subtracted.

human sebocyte cells = assay: MTT cytotoxicity assay in human cultured sebocytes; type: cell-based
Description: as §1

HepG2 cells = assay: MTT cytotoxicity assay in HepG2 cells; type: cell-based, human
Description: as §2

sebaceous glands = assay: Mouse ear assay for sebaceous gland prevalence; type: in vivo, C57BL/6J mice; conditions: topical 1% solution in DMSO:acetone 50:50, twice a day for five days, vs controls
Description: C57BL/6J male mice (Harlan Models), approximately 4-5 weeks of age, body weight 20-30 g, were acclimatized (individually housed) for 5 days in a 12 hour light/dark cycle standard laboratory environment (T=20-24° C., relative humidity 30-70%, 15-20 air changes per hour) with access to water and standard rodent chow (Harlan Tekiad 2014C supplied by Harlan Laboratories Models, S.L.) ad libitum. Animals were anesthetized with isoflurane and the test article (80 ul, 1% solution in DMSO:acetone 50:50) was administered to the outer surface of each of the ears of between 2 and 5 mice twice a day for five days by dermal application using a micropipette tip (a little volume of the solution was also applied on the inner side of the ears). All animals were monitored daily for reaction to the treatment, signs of illness, and behavioral changes. Body weights were recorded before the first administration and immediately prior to sacrifice. Approximately 12 to 16 hours after the final administration on day 5 the mice were sacrificed by i.p. injection of sodium pentobarbital (200 mg/kg) and the ears were collected. Each ear was sectioned into two halves. For each animal, one-half of one ear was fixed, in neutral phosphate-buffered 4% formaldehyde solution (4% formalin). This trimmed section of the ear was then processed, embedded in paraffin wax and stored at room temperature. […]

CYP1A1 enzyme [5] = assay: EROD assay in human cultured sebocytes; type: cell-based; conditions: 10 uM, 24 h
Description: as §1

CYP1A1 enzyme [6] = assay: EROD assay in HepG2 cells (cleavage of 7-ethoxyresorufin to resorufin); type: cell-based, human; conditions: 10 uM, 24 h
Description: as §2

Row | Compound | EC50 at 24 h (CYP1A1 [3]) [nM] | EC50 at 24 h (CYP1A1 [4]) [nM] | Toxicity threshold (human sebocyte cells) [µM] | Toxicity threshold (HepG2 cells; human, 24 h) [µM] | further results
1 | O=c1cc(-c2ccccc2)oc2ccc3ccccc3c12 [3-phenyl-1H-benzo[f]chromen-1-one, 3-Phenyl-1H-benzo[f]chromen-1-one] |  |  |  |  | induction of the luciferase activity [1]: a significant induction; induction of luciferase activity [2]: a significant induction
2 | O=c1c2ccccc2oc2ccc3ccccc3c12 [Compound C] | 200 | 2500 | >30 | >30 | induction of CYP1A1 mRNA (in words) (CYP1A1 mRNA): potent inducer; number of differentiated sebocytes (sebaceous glands): a reduction; number of sebaceous glands (sebaceous glands): a clear reduction
3 | O=c1cc(-c2ccccc2)oc2ccc3ccccc3c12 [Compound D, 3-Phenyl-1H-benzo[f]chromen-1-one, reference compound] |  |  | 30 |  | % change vs. TCDD EROD (Sebs) at 10 uM (CYP1A1 enzyme [5]): 17%; CYP1A1 mRNA fold change from vehicle (CYP1A1 mRNA; 24 h incubation, normalized to 18S rRNA): 596 fold; % change vs. TCDD EROD (HepG2) at 10 uM (CYP1A1 enzyme [6]): 19%; Toxicity threshold (HepG2 cells; HepG2 cells, MTT): >50 µM
4 | COc1ccc2oc3ccc4ccccc4c3c(=O)c2c1 [Compound K] | 500 | 500 | >50 | >100 | 
5 | O=c1c2cc(O)ccc2oc2ccc3ccccc3c12 [Compound L] | 500 | 600 | >50 | >100 | 
6 | COc1ccc2c(=O)c3c(ccc4ccccc43)oc2c1 [Compound M] |  | 3000 | 50 | >30 | 
7 | O=c1c2ccc(O)cc2oc2ccc3ccccc3c12 [Compound N] |  | 1500 | >50 | >30 | 
8 | COc1cccc2c(=O)c3c(ccc4ccccc43)oc12 [Compound O] |  |  | >100 | >100 | 
9 | O=c1c2cccc(O)c2oc2ccc3ccccc3c12 [Compound P] | 200 | 2000 | >100 | >100 | 
